Assay results taken from patent US20100273656A1, “COMPOSITION AND METHOD FOR SELECTIVE HERBICIDE” (priority 2002, published 2010).

Columns and labels:
[1] = test system: daisy (Bellis perennis); test: Example 11 field test, daisy in lawn; format: in vivo
Experimental: Killex® (Green Cross, Ontario, Canada) is a commonly used selective lawn herbicide and was included in several field tests as a standard. Killex contains 2,4-D (9.5%), mecoprop (5%) and dicamba (0.9%). The product was diluted 6 ml into 1 L of water solution and applied at rate of 200 ml/m^2, as per label instructions.
This test investigated the effect of FeHEDTA and a mixture of FeEDDS and FeMGDA on daisy (Bellis perennis), dandelion (Taraxacum officinale) and a turf bentgrass (Agrostis sp.). The chelating agents were used at one and a half times the molar amount of iron. The FeHEDTA solutions contained 0.2% iron (35.8 mM). The commercially prepared FeHEDTA product from the Monterey Chemical Company (CA, USA) was used as a standard. The (FeEDDS+FeMGDA) solutions contained 0.4% iron (71.6 mM) and the same molar amount of EDDS and MGDA. The solutions were made from NaEDDS (Octaquest E30, Octel) and NaMGDA (Trilon M liquid, BASF, Germany). Ammonium sulfate was added at a concentration of 1%. Killex (Solaris ON, Canada) was diluted and applied as per label instructions of 6 ml/L applied at 200 ml/m^2.
The daisy (0.25 m^2) and dandelion (0.5 m^2) test plots were in different areas of the bentgrass field. The dandelions were large, averaging 30 cm in diameter. The daisy patches were between 10 and 20 cm in diameter. The plants were sprayed weekly 4 times.

[2] = test system: white clover; test: Example 17 iron chelates with Killex, white clover; format: in vivo
Experimental: (§1) Plants were fertilized with an all purpose water-soluble fertilizer mix of 20-20-20 (N-P-K; Plant-Prod®) as needed. All broadleaf weeds were grown individually in a 2¼-inch pot until they were a suitable size for herbicide tests (actual weed size is reported in examples below). Perennial ryegrass was also grown in 2¼-inch pots, however many grass seeds were sown in the pot to simulate a small section of turf. Grass plants were continually trimmed to a height of 4 cm, simulating that of a homeowner's lawn. For field tests, plots ¼ m^2 in size were marked out in areas containing the targeted broadleaf weed species growing in turf grass. Plots were continually mowed to simulate a homeowner's lawn. […] In all of the examples, the amounts of the various herbicide components are identified as a percent on a weight basis.
(§2) Killex® (Scotts Canada, Ltd., Ontario, Canada) is a commonly used selective lawn herbicide and was used as the commercial herbicide for herbicide combinations. The labeled dilution and application rates for Killex® are 6 ml into 1 L of solution (0.6%) applied at 200 ml/m^2.
(§3) All visual plant damage assessments were made using a quantitative rating scale; percent control relative to the untreated check (0=no effect; 100=plant death).
Materials and Methods: This trial was conducted in the greenhouse. Nine pots of white clover and 10 pots of perennial ryegrass were selected for each treatment. Herbicidal solutions were prepared using deionized water. The treatments were applied using a handheld trigger sprayer at 200 ml/m^2. All treatments were applied once. Phytotoxicity (%) was assessed 4, 7, and 14 days after application (A4, A7, and A14).

[3] = test system: Park Lawn; test: Example 22 field test FeIDS and/or FeHEDTA with Killex, Park Lawn; format: in vivo; conditions: A7 = 7 days after treatment
Experimental: as §1, with “basis. […]” for “basis.”
as §3
Materials and Methods: Plots ¼ m^2 in size were marked out in white clover and Park Lawn (turfgrass mixture comprising of 65% perennial ryegrass, 25% chewings/creeping red fescue and 10% Kentucky bluegrass) area in the field. […] Phytotoxicity (%) was assessed on 7 days after treatment (A7).

[4] = test system: dandelions; test: Example 2 field test of FeEDDS and FeHEDTA at pH 3 and 7, dandelion; format: in vivo, Taraxacum officinale
Experimental: The following non-limiting examples serve to further describe the invention. Unless otherwise specified, all of the iron solutions were made using the same molar concentration of iron ion as chelating agent. All of the outside tests were done on areas of mixed grass and dandelions that were at least 2 months old. For the greenhouse tests, dandelions were grown in a commercial greenhouse mix, using supplemental lighting and heating. Each plant was grown in a 2¼ inch pot to a minimum diameter of 20 cm. All of the solutions were sprayed onto the plants at a rate of 100 ml/m^2. The ferrous sulfate formulations that were used in examples 1, 2, 8 and 9 contained 1% iron (180 mM), 18 mM EDTA, 1% citric acid and 0.5% urea. In all of the examples, the amount of iron is identified in brackets as the percent iron on a weight basis.
All plant damage was assessed using a qualitative rating scale from 0 to 9.
The FeEDDS and FeHEDTA solutions contained 0.2% Fe^+3 (35.8 mM). The ferrous sulfate contained 1% Fe^+2 (179.1 mM). The solutions were sprayed at a rate of 0.1 L/m^2 onto 2 plots of 0.5 m^2 of mixed grass and dandelions. Observations were made 4 days after spraying.

[5] = test system: dandelion; test: Example 14 field dandelion test of iron chelates and 50:50 mixtures; format: in vivo, Taraxacum officinale; design: Surviving Dandelions (%): concentration or dose not given beside the values
From the text: Solutions were made of FeHEDTA (0.2% Fe), FeEDTA (0.2% Fe), FeEDDS (0.4% Fe), and FeMGDA (0.4% Fe). For the combinations, these 4 solutions were mixed together in a 1:1 ratio. The plots (0.25 m^2) were sprayed 3 times at weekly intervals at a rate of 0.1 L/m^2. The plots contained a mixture of dandelion and hard fescue turfgrass.

[6] = test system: white clover; test: Example 18 FeHEDTA with Killex, white clover; format: in vivo
Experimental: as §1, §2, §3
Materials and Methods: This trial was conducted in the greenhouse. Nine pots of white clover and 10 pots of perennial ryegrass were selected for each treatment. Herbicide solutions were prepared using deionized water. The treatments were applied using a hand-trigger sprayer at 200 ml/m^2. All treatments were applied once. Phytotoxicity (%) was assessed 4, 7, and 14 days after application (A4, A7, and A14).

In the case of `O=C([O-])CN(CCO)CCN(CC(=O)[O-])CC(=O)[O-].[Fe+3]` [FeHEDTA], the “Plot Area Covered by Daisy Plants (%)” value ([1]; day 0 (start of test)) is reported as 60%, the “Daisy Necrosis (%)” value ([1]; day 2) is reported as 20% and the “Daisy Necrosis (%)” value ([1]; day 10) is reported as 95%. For the same compound, the “Plot Area Covered by Daisy Plants (%)” value ([1]; day 13, sprayed weekly 4 times) was 1%, the “Daisy Necrosis (%)” value ([1]; day 16) was 98% and the “Plot Area Covered by Daisy Plants (%)” value ([1]; day 21) was 2%. For the same compound, the “Daisy Necrosis (%)” value ([1]; day 23) was 98%, the “Plot Area Covered by Daisy Plants (%)” value ([1]; day 30) was 0.5% and the “Phytotoxicity (%) against white clover” value ([2]; A4 = 4 days after application, 0=no effect, 100=plant death) was 22%. For the same compound, the “Phytotoxicity (%) against white clover” value ([2]; A7 = 7 days after application) was 19%, the “Phytotoxicity (%) against white clover” value ([2]; A14 = 14 days after application) was 15% and the “Phytotoxicity (%) on Park Lawn” value [3] was 3%. For the same compound, the “Dandelion Damage (0 to 9)” value ([4]; solution pH 2.6-3.0, 0.1 L/m^2, 4 days after spraying) was 7.0 0 to 9, the “Dandelion Damage (0 to 9)” value ([4]; solution pH 7.0-7.1, 0.1 L/m^2, 4 days after spraying) was 7.5 0 to 9 and the “Area Covered by Dandelion (%)” value ([5]; day 0) was 40%. The “Dandelion Count (#/0.25 m^2)” value ([5]; day 0) was 63 #/0.25 m^2, the “Dandelion Count (#/0.25 m^2)” value ([5]; day 6) was 60 #/0.25 m^2 and the “Surviving Dandelions (%)” value ([5]; day 6) was 95%. For the same compound, the “Area Covered by Dandelion (%)” value ([5]; day 6, sprayed 3 times at weekly intervals) was 20%, the “Dandelion Necrosis (%)” value ([5]; day 11) was 95% and the “Dandelion Count (#/0.25 m^2)” value ([5]; day 13) was 40 #/0.25 m^2. The “Surviving Dandelions (%)” value ([5]; day 13) was 63%, the “Area Covered by Dandelion (%)” value ([5]; day 15) was 8% and the “Dandelion Necrosis (%)” value ([5]; day 18) was 97%. The “Area Covered by Dandelion (%)” value ([5]; day 21) was 2%, the “Dandelion Count (#/0.25 m^2)” value ([5]; day 21) was 26 #/0.25 m^2 and the “Surviving Dandelions (%)” value ([5]; day 21) was 41%. For the same compound, the “Dandelion Necrosis (%)” value ([5]; day 33) was 97%, the “Phytotoxicity (%) against white clover” value ([6]; A4) was 27% and the “Phytotoxicity (%) against white clover” value ([6]; A7) was 50%. For the same compound, the “Phytotoxicity (%) against white clover” value ([6]; A14) was 18%.
